Experimental data as given in patent US4361703A, “Para-amino(or nitro)phenyl N-acetylaminothioalkanoates” (priority 1977, dated 1982).
Read-outs that look alike come from different tables or passages of the source.

How the values were obtained:
[1] = system: yeast-inflamed hind-paw pain-threshold; test: Analgesic activity, Randall-Selitto test in rats; assay type: in vivo, female Charles River rats
Procedure: (C)--Investigation of Analgesic Activity in Rats
A control group received only the gum tragacanth vehicle.
In order to evaluate the effect of the treatment upon pain-thresholds, pressure was applied both to the injected hind-paw and to the other non-injected hind-paw. The pain-threshold was noted as the pressure at which the rat flinched, measured using an Ugo Basile "Analgesimeter" for both hind-paws of each rat at intervals of 1 hour, 3 hours, 5 hours and 22 hours after the administration, and expressed as the percentage of the pain-threshold pressure for the injected (and thus inflamed) hind-paw as against the non-injected (and thus healthy) hind-paw.

in vivo = conditions: mouse, in vivo, po
Procedure: (E)--Investigation of Acute Oral Toxicity in Mice
Charles River (CD-1 COBS) albino mice, 20-22 g in weight, were kept for some days in an air-conditioned animal house and fed with a standard diet (sterile VAR granules). They were fasted overnight before experiment, with water ad libitum. 15 Male mice and 15 female mice were used for each experiment.
N-Acetyl-para-aminophenol (NAPA) and N-acetyl-para-aminophenyl N'-acetyl-D,L-methionate (Compound A) were then administered to the mice, orally, as a suspension (shaken continuously with an electromagnetic agitator) in 5% gum arabic at a volume of 0.02 ml/g, either individually or in variously proportioned mixtures and at different dose levels, as shown in Table VII below.
A control group received only the 5% gum arabic vehicle.

[2] = Acute oral toxicity in rats; assay type: in vivo; conditions: rat, in vivo; for mortality at 144 h / mortality at 48 h / mortality at 72 h / mortality at 96 h / mortality at 120 h / mortality at 168 h / mortality at 24 h: po; for mortality at 144 h: 6 Days
Procedure: (§1) (F)--Investigation of Acute Oral Toxicity in Rats
(§2) The investigation was carried out upon groups of 10 male and 10 female albino rats (Charles River CD-1 COBS) of 80-100 g body weight. […] Before the experiment they were fasted overnight, with water ad libitum. NAPA and Compound A were then administered orally by oesophageal intubation as suspensions (continuously shaken with an electromagnetic agitator) in 1% gum arabic at a volume of 2 ml/100 g body weight, and at dose levels of 1, 2, 4 and 8 g/kg. A control group received orally, under the same experimental conditions, merely 2 ml/100 g of the suspension vehicle. The rats were then kept under observation during seven days, while their behaviour patterns were observed and the mortality recorded

[3] = system: albino rats (Charles River CD-1 COBS); test: Acute oral toxicity in rats; assay type: in vivo
Procedure: as §1, §2

[4] = mouse, in vivo, po
Procedure: (A)--Investigation of Serum Concentrations in Mice
36 Charles River COBS mice (18 males and 18 females) weighing 30 g each were deprived of food for 16 hours before the trial but were given their usual drinking water. Three groups, each containing 6 males and 6 females, received a dosage of 1 ml/100 g body weight per mouse, orally by stomach tube, of a suspension in 1% gum tragacanth of respectively:
Group X: 500 mg/kg of N-acetyl-para-aminophenol
A blood sample was taken by throat-slitting from one male and one female from each Group at each study time, i.e. 1/2, 1, 2, 4 and 24 hours after the oral administration.
At times 1/2, 1, 2 and 4 hours, each serum sample was divided into three 0.1 ml trial samples for the following three determinations:

[5] = 1000 mg/kg, 1 g/kg oral, 10 F, read-out: Percentage Mortality
[6] = 1000 mg/kg, 1 g/kg oral, 10 M, read-out: Percentage Mortality
[7] = 1000 mg/kg, 1 g/kg oral, M & F, read-out: Percentage Mortality
[8] = 2000 mg/kg, 2 g/kg oral, 10 F, read-out: Percentage Mortality
[9] = 2000 mg/kg, 2 g/kg oral, 10 M, read-out: Percentage Mortality
[10] = 2000 mg/kg, 2 g/kg oral, M & F, read-out: Percentage Mortality
[11] = 4000 mg/kg, 4 g/kg oral, 10 F, read-out: Percentage Mortality
[12] = 4000 mg/kg, 4 g/kg oral, 10 M, read-out: Percentage Mortality
[13] = 4000 mg/kg, 4 g/kg oral, M & F, read-out: Percentage Mortality
[14] = 4000 mg/kg, Percentage Mortality
[15] = 8000 mg/kg, 8 g/kg oral, 10 F, read-out: Percentage Mortality
[16] = 8000 mg/kg, 8 g/kg oral, 10 M, read-out: Percentage Mortality
[17] = 8000 mg/kg, 8 g/kg oral, M & F, read-out: Percentage Mortality
[18] = 8000 mg/kg, Percentage Mortality

For `CC(=O)Nc1ccc(O)cc1` [NAPA, N-acetyl-para-aminophenol], the “Percentage Pain-Threshold (injected vs non-injected paw)” value ([1]; 1 millimole/kg oral (NAPA 151, A 324 mg/kg), 1 hr. (3.5 hrs. from yeast)) was 45 ± 3.5 Percentage, the “Percentage Pain-Threshold (injected vs non-injected paw)” value ([1]; 1 millimole/kg oral (NAPA 151, A 324 mg/kg), 3 hrs. (5.5 hrs. from yeast)) was 48 ± 4.1 Percentage and the “Percentage Pain-Threshold (injected vs non-injected paw)” value ([1]; 1 millimole/kg oral (NAPA 151, A 324 mg/kg), 5 hrs. (7.5 hrs. from yeast)) was 47 ± 1.7 Percentage. For the same compound, the “Percentage Pain-Threshold (injected vs non-injected paw)” value ([1]; 1 millimole/kg oral (NAPA 151, A 324 mg/kg), 22 hrs. (24.5 hrs. from yeast)) was 43 ± 3.4 Percentage, the “Percentage Pain-Threshold (injected vs non-injected paw)” value ([1]; 2 millimoles/kg oral (NAPA 302, A 648 mg/kg), 1 hr. (3.5 hrs. from yeast)) was 50 ± 4.2 Percentage and the “Percentage Pain-Threshold (injected vs non-injected paw)” value ([1]; 2 millimoles/kg oral (NAPA 302, A 648 mg/kg), 3 hrs. (5.5 hrs. from yeast)) was 54 ± 4.0 Percentage. For the same compound, the “Percentage Pain-Threshold (injected vs non-injected paw)” value ([1]; 2 millimoles/kg oral (NAPA 302, A 648 mg/kg), 5 hrs. (7.5 hrs. from yeast)) was 53 ±3.9 Percentage, the “Percentage Pain-Threshold (injected vs non-injected paw)” value ([1]; 2 millimoles/kg oral (NAPA 302, A 648 mg/kg), 22 hrs. (24.5 hrs. from yeast)) was 54 ± 4.7 Percentage and the “P of pain-threshold (t-test versus control)” value ([1]; 2 millimoles/kg oral, 3 hrs.) was under 0.05. For the same compound, the LD50 at 24 h (in vivo) was 730 ± 65 mg/kg, the LD50 at 168 h (in vivo) was 690 ± 65 mg/kg and the mortality at 144 h [2, 5] was 0%. For the same compound, the mortality at 48 h [2, 5] was 0%, the mortality at 72 h ([2]; 1000 mg/kg, 1 g/kg oral, 10 M, 3 Days, read-out: Percentage Mortality) was 10% and the mortality at 96 h ([2]; 1000 mg/kg, 1 g/kg oral, 10 M, 4 Days, read-out: Percentage Mortality) was 10%. It also gave a mortality at 120 h ([2]; 1000 mg/kg, 1 g/kg oral, 10 M, 5 Days, read-out: Percentage Mortality) of 10%, a mortality at 144 h [2, 6] of 10% and a mortality at 168 h ([2]; 1000 mg/kg, 1 g/kg oral, 10 M, 7 Days, read-out: Percentage Mortality) of 10%. For the same compound, the mortality at 24 h ([2]; 1000 mg/kg, 1 g/kg oral, 10 M, 24 Hours, read-out: Percentage Mortality) was 10%, the mortality at 48 h [2, 6] was 10% and the mortality at 120 h ([2]; 1000 mg/kg, 1 g/kg oral, M & F, 5 Days, read-out: Percentage Mortality) was 5%. The mortality at 144 h [2, 7] was 5%, the mortality at 48 h [2, 7] was 5% and the mortality at 120 h ([2]; 1000 mg/kg, Percentage Mortality) was 0%. It also gave a mortality at 144 h [2, 8] of 0%, a mortality at 48 h [2, 8] of 0% and a mortality at 72 h ([2]; 2000 mg/kg, 2 g/kg oral, 10 M, 3 Days, read-out: Percentage Mortality) of 10%. It also gave a mortality at 96 h ([2]; 2000 mg/kg, 2 g/kg oral, 10 M, 4 Days, read-out: Percentage Mortality) of 10%, a mortality at 120 h ([2]; 2000 mg/kg, 2 g/kg oral, 10 M, 5 Days, read-out: Percentage Mortality) of 10% and a mortality at 144 h [2, 9] of 10%. It also gave a mortality at 168 h ([2]; 2000 mg/kg, 2 g/kg oral, 10 M, 7 Days, read-out: Percentage Mortality) of 10%, a mortality at 24 h ([2]; 2000 mg/kg, 2 g/kg oral, 10 M, 24 Hours, read-out: Percentage Mortality) of 10% and a mortality at 48 h [2, 9] of 10%. For the same compound, the mortality at 120 h ([2]; 2000 mg/kg, 2 g/kg oral, M & F, 5 Days, read-out: Percentage Mortality) was 5%, the mortality at 144 h [2, 10] was 5% and the mortality at 48 h [2, 10] was 5%. For the same compound, the mortality at 120 h ([2]; 2000 mg/kg, Percentage Mortality) was 0%, the mortality at 144 h [2, 11] was 70% and the mortality at 168 h ([2]; 4000 mg/kg, 4 g/kg oral, 10 F, 7 Days, read-out: Percentage Mortality) was 70%. It also gave a mortality at 48 h [2, 11] of 70%, a mortality at 72 h ([2]; 4000 mg/kg, 4 g/kg oral, 10 M, 3 Days, read-out: Percentage Mortality) of 90% and a mortality at 96 h ([2]; 4000 mg/kg, 4 g/kg oral, 10 M, 4 Days, read-out: Percentage Mortality) of 90%. It also gave a mortality at 120 h ([2]; 4000 mg/kg, 4 g/kg oral, 10 M, 5 Days, read-out: Percentage Mortality) of 90%, a mortality at 144 h [2, 12] of 90% and a mortality at 168 h ([2]; 4000 mg/kg, 4 g/kg oral, 10 M, 7 Days, read-out: Percentage Mortality) of 90%. The mortality at 24 h ([2]; 4000 mg/kg, 4 g/kg oral, 10 M, 24 Hours, read-out: Percentage Mortality) was 90%, the mortality at 48 h [2, 12] was 90% and the mortality at 144 h [2, 13] was 80%. The mortality at 48 h [2, 13] was 80%, the mortality at 24 h [2, 14] was 70% and the mortality at 72 h [2, 14] was 70%. For the same compound, the mortality at 96 h [2, 14] was 70%, the mortality at 120 h [2, 14] was 70% and the mortality at 168 h [2, 14] was 80%. The mortality at 144 h [2, 15] was 100%, the mortality at 48 h [2, 15] was 100% and the mortality at 72 h ([2]; 8000 mg/kg, 8 g/kg oral, 10 M, 3 Days, read-out: Percentage Mortality) was 100%. It also gave a mortality at 96 h ([2]; 8000 mg/kg, 8 g/kg oral, 10 M, 4 Days, read-out: Percentage Mortality) of 100%, a mortality at 120 h ([2]; 8000 mg/kg, 8 g/kg oral, 10 M, 5 Days, read-out: Percentage Mortality) of 100% and a mortality at 144 h [2, 16] of 100%. For the same compound, the mortality at 168 h ([2]; 8000 mg/kg, 8 g/kg oral, 10 M, 7 Days, read-out: Percentage Mortality) was 100%, the mortality at 24 h ([2]; 8000 mg/kg, 8 g/kg oral, 10 M, 24 Hours, read-out: Percentage Mortality) was 90% and the mortality at 48 h [2, 16] was 100%. The mortality at 144 h [2, 17] was 100%, the mortality at 48 h [2, 17] was 100% and the mortality at 24 h [2, 18] was 100%. It also gave a mortality at 72 h [2, 18] of 100%, a mortality at 96 h [2, 18] of 100% and a mortality at 120 h [2, 18] of 100%. For the same compound, the mortality at 168 h [2, 18] was 100%, the LD50 at 24 h ([2]; oral, rats, Miller and Tainter method) was 3100 ± 500 mg/kg and the LD50 at 168 h ([2]; oral, rats, Miller and Tainter method, read-out: LD50 (7 days)) was 2850 ± 400 mg/kg. The “time of first deaths” value ([3]; 8 g/kg oral, rats) was “eight hours after the administration at 8 g/kg dose level”, the “mortality (in words)” value ([3]; oral, rats, 1-8 g/kg) was “Heavy mortality” and the “Percentage Mortality” value ([3]; rat, in vivo, po, 8000 mg/kg, 24 h) was 95 Percentage. For the same compound, the “serum "total" or "enzymatic" NAPA profile” value [4] was “slowly decreases but remains high up to 4 hours after oral administration”.
